Target: T1, OAT2h mutant E441Q (Homo sapiens, UniProt Q9Y694, E443Q)
T1 construct: expressed in transfected cells; host or cells: 293 cells (HEK-293), doxycycline-inducible
T1 sequence (Q9Y694 1-546 isoform Q9Y694-2 E441Q): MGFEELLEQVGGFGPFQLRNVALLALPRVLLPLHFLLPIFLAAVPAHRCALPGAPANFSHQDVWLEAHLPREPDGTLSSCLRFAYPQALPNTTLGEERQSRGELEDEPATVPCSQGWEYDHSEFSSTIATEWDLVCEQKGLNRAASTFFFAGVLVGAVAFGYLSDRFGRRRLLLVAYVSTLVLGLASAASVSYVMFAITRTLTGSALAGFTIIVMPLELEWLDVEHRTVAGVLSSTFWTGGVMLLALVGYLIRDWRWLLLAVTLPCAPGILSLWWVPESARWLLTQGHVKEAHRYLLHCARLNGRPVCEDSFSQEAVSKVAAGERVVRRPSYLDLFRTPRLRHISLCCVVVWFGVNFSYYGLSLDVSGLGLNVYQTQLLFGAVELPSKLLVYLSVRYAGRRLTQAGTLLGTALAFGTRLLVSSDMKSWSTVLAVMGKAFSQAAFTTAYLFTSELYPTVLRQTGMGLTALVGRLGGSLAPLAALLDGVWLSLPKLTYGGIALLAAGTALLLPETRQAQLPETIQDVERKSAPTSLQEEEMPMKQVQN
Assay: uptake by OAT2h mutant E441Q (eGFP chimera) in 293 cells
Type: cell-based
Conditions: 1 min, 37° C., 0.1 μmol/l radiolabeled solute
Method: 293 cells transfected for expression of eGFP chimera of OAT2h wild-type or OAT2hE441Q in dishes were incubated (1 min, 37° C.) with 0.1 μmol/l radiolabeled solute in uptake buffer, washed, and lysed. Cell lysates were analyzed by liquid scintillation counting.
In transmembrane segment 10, the OAT2 orthologues from human, horse, pig, cattle, rabbit, rat, mouse, opossum, and chicken uniformly contain a glutamate (E441 in OAT2h) that is absent in the related carriers OAT1, OAT3, and SLC22A13. Since in other SLC22 family members transmembrane segment 10 is involved in substrate discrimination (Bacher et al. Biochim Biophys Acta 2009; 1788:2594-2602.), the negative charge of the glutamate side chain could specifically attract the ammonium residue of the glutamate substrate. To test this hypothesis, a mutant of OAT2h was created with glutamine at position 441 (E441 Q); eGFP was attached to the C-terminus to verify unaltered membrane trafficking (FIG. 23). […] It follows that E441 is essential for transport of glutamate. […]

Row | SMILES | uptake with mutant E441Q versus wild-type (in words)
1 | N[C@@H](CCC(=O)O)C(=O)O [glutamate] | completely abolished
2 | O=C(O)c1cc(=O)[nH]c(=O)[nH]1 [orotic acid] | much reduced, but still evident

— US20140090094A1, “MODULATORS OF SLC22A7” (BAYER INTELLECTUAL PROPERTY GmbH, priority 2011, published 2014)
